{"source": "patent US20020009713A1", "about": "“Methods for identifying modulators of neuronal growth” (priority 2000, published 2002)", "key": {"sympathetic neurons [1]": {"test_system": "sympathetic neurons", "assay": "Quantitative dot-blot of MAP2 association with microtubules and microtubule stability", "format": "cell-based, rat", "conditions": "for amount of MAP2 bound to microtubules: two days", "protocol": "FIG. 22 is a schematic illustration showing immuno-dot blot analysis of MAP2 association and tubulin dynamics in SCG neurons. […]\n(§1) Microtubules were isolated from cultured sympathetic neurons, and the relative amount of MAP2 present per microgram tubulin was determined using quantitative dot-blot analysis. […] Depolarization enhances MAP2 levels and CamKII phosphorylation in sympathetic neurons. We performed western blot analysis of sympathetic neurons treated with 10 ng/ml NGF, 50 mM KCl, or NGF+KCl. Lysates containing equal amounts of protein were separated by SDS-PAGE, transferred to nitrocellulose, and then probed for MAP2, phosphorylated-CamKII, phosphorylated-ERKs, or total ERK protein. KCl increases the amount of MAP2 present in sympathetic neurons, and enhances CamKII phosphorylation.\n(§2) Inhibition of either CamKII or MEK is sufficient to inhibit activitydependent dendrite formation. Immunocytochemical analysis for MAP2 on sympathetic neurons cultured in the presence of NGF+KCl with or without 10 um KN62, 75 um PD98059, 100 nM H-89 or 10 uM forskolin. […] In this study, microtubule stability was determined in sympathetic neurons maintained in NGF or NGF+KCl, and treated with selective pharmacological inhibitors."}, "sympathetic neurons [2]": {"test_system": "sympathetic neurons", "assay": "Western blot / biochemical analysis of MAP2, phosphorylated-CamKII and phosphorylated-ERKs", "format": "cell-based, rat", "conditions": "for MAP2 levels: FIG. 27, NGF, KCl and kinase inhibitors", "protocol": "as §1"}, "rat sympathetic neurons [3]": {"test_system": "rat sympathetic neurons", "assay": "MTT survival assay of cultured sympathetic neurons", "format": "cell-based", "protocol": "Neurons were plated at low density (approximately one ganglion/well) in Nunclon™ 4-well culture dishes (Gibco BRL, Burlington, Ontario, Canada), coated with either rat tail collagen or poly-D-lysine and laminin (both from Collaborative Biomedical Products, Bedford, Mass.). Culture medium was UltraCulture (BioWhittaker, Walkersville, Md.), supplemented with 3% rat serum (Harlan Bioproducts, Madison, Wis.), 2 mM glutamine, 100 U/ml penicillin, 100 μg/ml streptomycin (all from BioWhittaker), and for the first two days, 7 μM cytosine arabinoside (Sigma-Aldrich Canada Ltd., Oakville, Ontario, Canada).\n(§3) NGF-dependent neurons were selected by culturing sympathetic neurons for five days in the presence of 50 ng/ml NGF. Neurons were washed three times for one hour each in neurotrophin-free media, and were then fed with media containing 10 ng/ml NGF alone, or various concentrations of NGF plus either 100 ng/ml BDNF, 10 μg/ml αBDNF, or a 1:100 dilution of antiserum containing the p75^NTR antibody, REX (Weskamp and Reichardt, Neuron 6: 649-663, 1991). Each condition was repeated in triplicate, and analysis of survival was performed 48 hours later by using nonradioactive cell proliferation (MTT) assays (Celltitre 96; Promega; Belliveau et al., J. Cell Biol. 136:375-388, 1997). Specifically, 50 μl of the MTT reagent was added to 500 μl media in each well, and incubated for two hours at 37° C. After aspiration of the MTT containing media, 100 μl of a 0.065N HCl/isopropanol mixture was added to each well to lyse the cells, and colorimetric analysis was performed using an ELISA reader. For rat sympathetic neurons, 10 ng/ml NGF represents 100% survival, therefore all other values were considered to be relative to 10 ng/ml NGF. For mouse neurons, 7.5 ng/ml NGF represents 100% survival, and was thus considered to be the 100% survival threshold for neuritogenesis experiments."}, "sympathetic neurons [4]": {"test_system": "sympathetic neurons", "assay": "Activity-dependent dendrite formation, MAP2 immunocytochemistry and image analysis", "format": "cell-based, rat", "conditions": "for activity-dependent dendrite formation (MAP2): NGF+KCl, 10 um KN62, 75 um PD98059", "protocol": "Dendritic growth can be measured as follows. Ninty-six-well plates are coated for […] with rat tail collagen (prepared in a dilution of 1% glacial acetic acid). After one hour, excess collagen is aspirated and allow to dry completely. SCG neurons are dissected, triturated and plated. Cells may also be plated onto 8-well chamber slides. Cells are fed after about three days and, after about five days, are switched to either 50 mM KCl or 10 ng/ml NGF+50 mM KCl for about three additional days. Neurons are washed briefly with PBS and then fixed for 10 minutes with 4% formaldehyde in PBS (freshly prepared). Excess fixative is removed by 3×5 min washes with PBS. Cells are stained for one hour at room temperature with the following antibodies with 3×5 min PBS washes after each incubation: primary antibody—mouse monoclonal IgG1 anti high molecular weight MAP2 (clone AP20, from Sigma), secondary antibody—donkey anti mouse CY3, minimum cross to mouse and rabbit (Jackson Immunochemicals). Cell are mounted and at least three fields of view are captured using an upright fluorescence microscope using 530 excitation/580 emission filters. For each individual neuron in a given field (minimum 250 neurons total), the distance of MAP2 positive staining from the perimeter of the cell body is measured. These measurements are performed and tabulated using NIH image. The tabulated data are then expressed as a population histogram, binning all the measured lengths into 2 μm bins. This analysis gives an overall measure of the extent of dendritic differentiation in the population.\nNeuronal depolarization causes dendrite formation in cultured sympathetic neurons, and NGF enhances this dendritogenesis. FIGS. 19A-19C, 20A, 20B show immunocytochemical analysis of sympathetic neurons cultured in the presence of NGF, switched to 10 ng/ml NGF, 50 mM KCl, or 10 ng/ml NGF+50 mM KCl for two days, and then stained for the dendrite-specific protein MAP2. FIGS. 20A and 20B are high magnification views of fields similar to those shown at lower-magnification in FIGS. 19A and 19C, respectively. The MAP2-immunoreactive processes show morphology characteristic of dendrites. The amount of dendritic formation could be readily quantified.\nas §2"}, "ERK, Akt, CamKII": {"test_system": "ERK, Akt, CamKII", "assay": "Check of inhibitor selectivity for ERK, Akt and CamKII pathways", "format": "cell-based"}, "rat sympathetic neurons [5]": {"test_system": "rat sympathetic neurons", "assay": "In vitro neuritogenesis assay (neuritic process density)", "format": "cell-based", "conditions": "100 ng/ml BDNF in 10 ng/ml NGF, two days, six experiments", "protocol": "Regulation of neuronal growth was analyzed by an in vitro neuritogenesis assay. Postnatal day one rat sympathetic neurons were cultured in 50 ng/ml NGF for two to three days in order to upregulate p75^NTR, whose increased expression in response to NGF occurs independently of neuronal survival. Following a one hour wash in neurotrophin-free medium, cultures were maintained for an additional two days in 10 ng/ml NGF plus or minus 100 ng/ml BDNF. Fields in sister cultures containing a similar number of neuronal cell bodies were then photographed, and neuritic process density was determined as described below. […]\nQuantitative analysis was performed by using common statistics applied to random sets of lines and determining the number of intersection points per unit area. […] Low density fields were photographed, and the number of visible intersections and bifurcations of cell processes per unit area was considered to be a quantitative measure of process density. Since the number of neurites is a direct function of the number of neurons, however, the number of intersections and bifurcations counted per unit area was normalized to the number of cell bodies in that same area of interest. […] Results are expressed as the mean density plus or minus the standard error of the mean."}, "TrkB": {"test_system": "TrkB", "assay": "BDNF neutralization: TrkB tyrosine phosphorylation in TrkB-expressing NIH-3T3 cells", "format": "cell-based", "conditions": "50 ng/ml BDNF, five minutes", "protocol": "To test the capacity of anti-BDNF to neutralize BDNF, TrkB-expressing NIH-3T3 cells were cultured in Dulbecco's modified Eagle medium. Briefly, cells were washed twice and incubated for one hour at 37° C. in buffer, followed by a 30 minute wash at 37° C. in a phosphate-free buffer. Treatment consisted of incubating cells for five minutes with either 50 ng/ml BDNF (Promega) or with BDNF preabsorbed for four hours at 4° C. with increasing concentrations of the BDNF antibody (5-40 μg/ml). In addition, TrkB-3T3 cells were treated with medium only, or medium plus 40 μg/ml nonimmune chicken IgY. Following these treatments, cells were lysed, immunoprecipitated with anti-pan Trk (Hempstead et al., Neuron 9:883-896, 1992), and the immunoprecipitates analyzed for TrkB activation by Western blot analysis with phosphotyrosine antibody 4G10 (Upstate Biotechnology Inc., Lake Placid, N.Y.)."}, "[6]": {"test_system": "mouse sympathetic neurons", "assay": "MTT survival assay of mouse sympathetic neurons", "format": "cell-based", "protocol": "CD-1 mouse sympathetic neurons were cultured by a modification of the method used to prepare rat neurons. Mouse cultures were essentially prepared the same way, but were dissociated in UltraCulture medium rather than Hanks' balanced saline solution. 3% fetal bovine serum (Gibco) was used instead of rat serum, and 3.5 μM cytosine arabinoside was added to the culture medium on day one post-plating.\nas §3, with “Each condition was repeated in triplicate, and analysis of survival was performed 48 hours later by using nonradioactive cell proliferation (MTT) assays (Celltitre 96; Promega; Belliveau et al., J.” left out, “For mouse neurons, 7.5 ng/ml NGF represents 100% survival, and was thus considered to be the 100% survival threshold for neuritogenesis experiments.” left out"}, "[7]": {"test_system": "murine sympathetic neurons", "assay": "Neuritogenesis assay in wild type and p75NTR-/- murine sympathetic neurons", "format": "cell-based, mouse", "conditions": "7.5 ng/ml NGF plus 100 ng/ml BDNF"}, "[8]": {"conditions": "10 ng/ml NGF added to 50 mM KCl"}}, "data": [{"molecule": "[Cl-].[K+]", "note": "[KCl]", "values": [{"measurement": "amount of MAP2 bound to microtubules", "setting": "sympathetic neurons [1]; 50 mM KCl", "value": "greatly enhances"}, {"measurement": "CamKII phosphorylation", "setting": "sympathetic neurons [2]; 50 mM KCl", "value": "enhances"}, {"measurement": "amount of MAP2 present in sympathetic neurons", "setting": "sympathetic neurons [2]; 50 mM KCl", "value": "increases"}]}, {"molecule": "CN([C@@H](Cc1ccc(OS(=O)(=O)c2cccc3cnccc23)cc1)C(=O)N1CCN(c2ccccc2)CC1)S(=O)(=O)c1cccc2cnccc12", "note": "[KN-62]", "values": [{"measurement": "survival of sympathetic neurons (MTT)", "setting": "rat sympathetic neurons [3]; cultured in NGF or NGF+KCl", "value": "None of these compounds perturbs"}, {"measurement": "survival of sympathetic neurons (MTT)", "setting": "rat sympathetic neurons [3]; cultured only in 50 mM KCl", "value": "dramatically reduces"}, {"measurement": "activity-dependent dendrite formation (MAP2)", "setting": "sympathetic neurons [4]", "value": "completely abolished"}, {"measurement": "KCl-induced increase in microtubule stability", "setting": "sympathetic neurons [1]; neurons maintained in NGF or NGF+KCl", "value": "completely inhibit"}, {"measurement": "MAP2 levels", "setting": "sympathetic neurons [2]", "value": "reduce"}, {"measurement": "ERK or Akt activation", "setting": "ERK, Akt, CamKII", "value": "do not affect"}]}, {"molecule": "COc1cccc(-c2cc(=O)c3ccccc3o2)c1N", "note": "[PD98059]", "values": [{"measurement": "activity-dependent dendrite formation (MAP2)", "setting": "sympathetic neurons [4]", "value": "completely abolished"}, {"measurement": "MAP2 levels", "setting": "sympathetic neurons [2]", "value": "reduce"}, {"measurement": "CamKII activity", "setting": "ERK, Akt, CamKII", "value": "does not affect"}]}, {"molecule": "O=S(=O)(NCCNC/C=C/c1ccc(Br)cc1)c1cccc2cnccc12", "note": "[H-89]", "values": [{"measurement": "survival of sympathetic neurons (MTT)", "setting": "rat sympathetic neurons [3]; cultured in NGF or NGF+KCl", "value": "None of these compounds perturbs"}]}, {"molecule": "BDNF: brain-derived neurotrophic factor; recombinant human BDNF (protein, UniProt P23560 19-247, looked up) Neurotrophic factor BDNF …: APMKEANIRGQGGLAYPGVRTHGTLESVNGPKAGSRGLTSLADTFEHVIEELLDEDQKVRPNEENNKDADLYTSRVMLSSQVPLEPPLLFLLEEYKNYLDAANMSMRVRRHSDPARRGELSVCDSISEWVTAADKKTAVDMSGGTVTVLEKVPVSKGQLKQYFYETKCNPMGYTKEGCRGIDKRHWNSQCRTTQSYVRALTMDSKKRIGWRFIRIDTSCVCTLTIKRGR", "values": [{"measurement": "sympathetic neuron survival (MTT)", "setting": "rat sympathetic neurons [3]; 100 ng/ml BDNF in 10 ng/ml NGF, two days", "value": "no effect"}, {"measurement": "average decrease of process network density", "setting": "rat sympathetic neurons [5]", "value": 40, "unit": "%"}, {"measurement": "tyrosine phosphorylation of TrkB", "setting": "TrkB", "value": "robust increase"}, {"measurement": "mouse sympathetic neuron survival (MTT)", "setting": "[6]; 7.5 or 10 ng/ml NGF plus 100 ng/ml BDNF", "value": "did not affect"}, {"measurement": "effect on growth", "setting": "[7]; p75NTR-/- neurons", "value": "no effect"}, {"measurement": "average decrease of neuronal growth", "setting": "[7]; wild type mouse cultures", "value": 35, "unit": "%"}]}, {"molecule": "NGF: nerve growth factor purified from mouse salivary glands (protein, UniProt P01139 122-241, looked up) Beta-nerve growth factor: SSTHPVFHMGEFSVCDSVSVWVGDKTTATDIKGKEVTVLAEVNINNSVFRQYFFETKCRASNPVESGCRGIDSKHWNSYCTTTHTFVKALTTDEKQAAWRFIRIDTACVCVLSRKATRRG", "values": [{"measurement": "mouse sympathetic neuron survival (MTT)", "setting": "[6]; 5, 7.5 and 10 ng/ml NGF, three days", "value": "maximal"}, {"measurement": "KCl-dependent dendritic growth", "setting": "sympathetic neurons [4]; [8]", "value": "greatly enhances"}, {"measurement": "dendritic growth (MAP2-positive dendrite length)", "setting": "sympathetic neurons [4]; 10 ng/ml NGF on its own", "value": "little ability to cause dendritic growth"}, {"measurement": "amount of MAP2 bound to microtubules", "setting": "sympathetic neurons [1]; [8]", "value": "enhances this effect to some degree"}, {"measurement": "ERK phosphorylation", "setting": "sympathetic neurons [2]; 10 ng/ml NGF compared with 50 mM KCl", "value": "more potent stimulator"}]}]}
